Data from patent publication US12721832B2, “Anti-senescence plant polyphenol drug downregulating senescence-related secretory phenotype and use thereof” (BYHEALTH CO., LTD., priority 2021, dated 2026).

Legend:
SASP factors = assay: qRT-PCR of SASP molecules in BLEO-induced senescent PSC27 cells at different PCC1 concentrations; type: cell-based, human
Experimental: All data are normalized results compared to the CTRL group. *, P<0.05; **, P<0.01.
Total RNA of cells in the growth phase or stasis phase was extracted with Trizol reagent, 1 mL Trizol was added to each T25 culture flask, the cell layer was scraped off with a cell scraper, transferred into a centrifuge tube, and mixed well until not viscous. […] After the RNA was quantified by a spectrophotometer, a small amount of total RNA was taken for 1% agarose electrophoresis to check the status and quality of the RNA. […]
Sample was loaded according to the above standard, and the reaction conditions were: 95° C. pre-denaturation for 15 seconds, then 95° C. for 5 seconds, 60° C. for 31 seconds, 40 cycles; melting curve conditions were 95° C. for 15 seconds, 60° C. for 30 seconds, 95° C. for 15 seconds. […] The expression of (3-actin was used as an internal reference. After the reaction was completed, the amplification of each gene was checked by software analysis, the corresponding threshold cycle number was derived, and the relative expression of each gene was calculated using the 2-AACt method. The peak and waveform of the melting curve was analyzed to determine whether the obtained amplification product was a specific single target fragment. […]

[1] = tested on: PC3/PSC27 xenograft tumors; assay: PC3/PSC27 xenograft tumor terminal volume in NOD/SCID mice; type: in vivo; conditions: end of 8th week
Text: Every two weeks was a dosing cycle, and MIT (mitoxantrone) was intraperitoneally administered to the mice on the first day of the 3rd/5th/7th weeks. From the first day of the 5th week, the mice were intraperitoneally administrated with PCC1, once a week. After the 8-week course of treatment, the mice were dissected for pathological identification and expression analysis.
Chemotherapeutic drug MIT alone or together with anti-senescence drug PCC1 was used to administer mice, and after the 8th week, the tumor size of each group was compared and analyzed.
All experimental mouse experiments were carried out in strict accordance with the relevant regulations of the Institutional Animal Care and Use Committee (IACUC), Shanghai Institutes for Biological Sciences, Chinese Academy of Sciences. Immunodeficient mice (NOD-SCID mice, ICR) (body weight about 25 g) aged 6-8 weeks were used for animal experiments related to the present patent. Stromal cells PSC27 and epithelial cells PC3 were mixed at a predetermined ratio of 1:4, and each graft contained 1.25×10^6 cells for tissue remodeling. The xenograft tumors were implanted into mice by subcutaneous transplantation, and the animals were euthanized 8 weeks after the end of the transplantation surgery. Tumor volume was calculated according to the following formula: V=(π/6)×[…] (V, volume; l, length; w, width).
In a preclinical treatment trial, subcutaneously transplanted mice were fed with a standard experimental diet, after 2 weeks chemotherapy drugs mitoxantrone (MIT, dose: 0.2 mg/kg) and/or procyanidin C1 (PCC1) (500 μl, dose: 10 mg/kg) via intraperitoneal administration. The time points were: the former was administrated on the first day of the 3rd, 5th and 7th weeks, and the latter was administrated on the first day of the 5th and 7th weeks. A total of 3 cycles of MIT administration were carried out throughout the course of treatment, and each cycle lasted for 2 weeks. After the course of treatment, mouse tumors were harvested for volume measurement and histological analysis. Each mouse cumulatively received 0.6 mg/kg body weight of MIT and […] body weight of PCC1. In order to cause systemic expression of SASP factor induced by chemotherapy, MIT was administered to mice through […] according to the above steps and sequence, but the dose was reduced to 0.1 mg/kg body weight/each time (the cumulative dose of MIT received in the whole course of treatment was 0.3 mg/kg body weight) to reduce drug-related toxicity. The chemotherapy experiment ended at the end of the 8th week, and the mice were dissected immediately after sacrifice, and the xenograft tumors were collected and used for pathological system analysis.

[2] = PCC1 administered to mice treated with MIT

Q: How did the “SASP inhibition at lower or higher concentrations” value (SASP factors; compared with 10 μM) turn out when `Oc1cc(O)c2c(c1)O[C@H](c1ccc(O)c(O)c1)[C@H](O)[C@H]2c1c(O)cc(O)c2c1O[C@H](c1ccc(O)c(O)c1)[C@H](O)[C@H]2c1c(O)cc(O)c2c1O[C@H](c1ccc(O)c(O)c1)[C@H](O)C2` [PCC1, procyanidin C1] was run?
A: The value was “less effective”.

Q: What about the “working concentration inhibiting SASP development with the greatest efficiency” value (SASP factors; concentration gradient, senescent PSC27) of the same compound?
A: Its value is 10 µM.

Q: And the “reduction in tumor volume compared with MIT” value [1, 2]?
A: Its value is 55.2%.

Q: What about the “reduction in tumor volume compared with placebo treatment” value [1, 2] of the same compound?
A: Its value is 74.9%.

Q: And the “reduction in tumor size compared to placebo” value ([1]; single agent, i.p.)?
A: The value was “did not cause tumor shrinkage”.
